Reference: patent publication US8304557B2, “Fused heterocycle derivatives and use thereof” (Takeda Pharmaceutical Company Limited, priority 2007, dated 2012)

Legend:
[1] = tested on: Human umbilical vein vascular endothelial cells (HUVEC); experiment: Vascular endothelial cell growth inhibitory test (VEGF-stimulated HUVEC, WST-8); format: cell-based; details: 120 h, VEGF 120 ng/mL solution added, 5 days of culture, read-out: IC50 value, vascular endothelial cell growth inhibition
Experimental: To be specific, HUVEC was suspended in a vascular endothelial cell medium containing the aforementioned 3% bovine fetal serum and plated in a 96 well flat bottom plate by 50 μL (3000 cells) each well. After culture overnight, various concentrations of the test substance and 120 ng/mL of vascular endothelial growth factor (VEGF) were dissolved in a vascular endothelial cell medium containing 3% bovine fetal serum and added to each well by 50 μL. […] The absorbance at 450 nm was measured by a microtiter plate reader and the cell growth inhibitory activity was determined.

[2] = target: T1, Platelet-derived growth factor receptor α (PDGFRα) intracellular domain protein (Homo sapiens, UniProt P16234); experiment: PDGFRα kinase inhibitory activity (AlphaScreen); format: biochemical; details: ATP 25 μM solution; 25° C., 30 min; read-out: IC50 value, PDGFRα kinase inhibition
T1 construct: 125 ng/ml of PDGFα intracellular domain protein (UPSTATE); purchased UPSTATE
T1 sequence (P16234 550-1089 limits assumed): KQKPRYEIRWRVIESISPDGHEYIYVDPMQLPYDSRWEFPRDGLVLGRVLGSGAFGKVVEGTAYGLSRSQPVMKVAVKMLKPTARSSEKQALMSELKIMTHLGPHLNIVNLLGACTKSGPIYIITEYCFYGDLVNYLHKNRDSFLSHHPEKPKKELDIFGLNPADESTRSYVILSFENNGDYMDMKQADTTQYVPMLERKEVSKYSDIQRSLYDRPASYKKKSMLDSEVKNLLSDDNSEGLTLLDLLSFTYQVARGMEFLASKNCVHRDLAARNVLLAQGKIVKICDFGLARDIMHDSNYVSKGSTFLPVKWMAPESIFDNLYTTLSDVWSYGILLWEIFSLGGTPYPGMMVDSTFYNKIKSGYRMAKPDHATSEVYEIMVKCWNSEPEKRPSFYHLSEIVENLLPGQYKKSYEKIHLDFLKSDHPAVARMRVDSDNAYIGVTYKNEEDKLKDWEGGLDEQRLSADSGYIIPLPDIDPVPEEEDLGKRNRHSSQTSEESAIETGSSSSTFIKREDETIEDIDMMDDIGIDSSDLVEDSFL
Experimental: (§1) A test compound dissolved in dimethyl sulfoxide (DMSO) was diluted with a buffer (50 mM Tris-HCl (pH 7.5), 5 mM MgCl2, 5 mM MnCl2, 2 mM dithiothreitol, 0.01% Tween-20). […] The reaction solution was allowed to stand at 25° C. for 16 hrs, and the wells were counted using a plate reader Fusion™ (PerkinElmer). The kinase inhibitory rate (%) of the test compound was calculated by the following formula: Inhibitory rate(%)=(1−(count of test compound−blank)÷(control−blank))×100
(§2) The count of the solution reacted without addition of the compound was used as a “control”, and the count of the solution without the compound and ATP was used as a “blank”.

[3] = target: T2, PDGFRβ intracellular domain protein (Homo sapiens, UniProt P09619); experiment: PDGFRβ kinase inhibitory activity (AlphaScreen); format: biochemical; details: ATP 50 μM solution; 25° C., 60 min; read-out: IC50 value, PDGFRβ kinase inhibition
T2 construct: 125 ng/ml of PDGFRβ intracellular domain protein (UPSTATE); purchased UPSTATE
T2 sequence (P09619 554-1106 limits assumed): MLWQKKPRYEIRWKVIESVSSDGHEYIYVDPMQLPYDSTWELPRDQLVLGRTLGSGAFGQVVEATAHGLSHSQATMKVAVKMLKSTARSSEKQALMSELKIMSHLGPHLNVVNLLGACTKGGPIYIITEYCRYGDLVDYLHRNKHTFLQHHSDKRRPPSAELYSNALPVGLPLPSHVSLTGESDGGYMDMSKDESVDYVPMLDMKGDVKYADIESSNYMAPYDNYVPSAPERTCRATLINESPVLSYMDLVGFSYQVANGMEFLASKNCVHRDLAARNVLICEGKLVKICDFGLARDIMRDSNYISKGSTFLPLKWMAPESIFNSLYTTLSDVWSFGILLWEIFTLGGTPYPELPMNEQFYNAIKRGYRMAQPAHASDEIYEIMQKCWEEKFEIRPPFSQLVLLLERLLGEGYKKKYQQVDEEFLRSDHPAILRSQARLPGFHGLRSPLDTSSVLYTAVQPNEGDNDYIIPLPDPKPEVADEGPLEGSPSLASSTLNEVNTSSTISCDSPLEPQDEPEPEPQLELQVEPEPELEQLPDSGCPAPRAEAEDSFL
Experimental: as §1, with “hr,” for “hrs,”
as §2

[4] = target: VEGFR2 intracellular domain protein (Homo sapiens, UniProt P35968); experiment: VEGF receptor 2 kinase inhibitory activity (AlphaScreen); details: read-out: The inhibitory rate of the compounds at 1 μM (VEGF receptor 2 kinase)
Sequence of VEGFR2 intracellular domain protein (P35968 786-1356 limits assumed): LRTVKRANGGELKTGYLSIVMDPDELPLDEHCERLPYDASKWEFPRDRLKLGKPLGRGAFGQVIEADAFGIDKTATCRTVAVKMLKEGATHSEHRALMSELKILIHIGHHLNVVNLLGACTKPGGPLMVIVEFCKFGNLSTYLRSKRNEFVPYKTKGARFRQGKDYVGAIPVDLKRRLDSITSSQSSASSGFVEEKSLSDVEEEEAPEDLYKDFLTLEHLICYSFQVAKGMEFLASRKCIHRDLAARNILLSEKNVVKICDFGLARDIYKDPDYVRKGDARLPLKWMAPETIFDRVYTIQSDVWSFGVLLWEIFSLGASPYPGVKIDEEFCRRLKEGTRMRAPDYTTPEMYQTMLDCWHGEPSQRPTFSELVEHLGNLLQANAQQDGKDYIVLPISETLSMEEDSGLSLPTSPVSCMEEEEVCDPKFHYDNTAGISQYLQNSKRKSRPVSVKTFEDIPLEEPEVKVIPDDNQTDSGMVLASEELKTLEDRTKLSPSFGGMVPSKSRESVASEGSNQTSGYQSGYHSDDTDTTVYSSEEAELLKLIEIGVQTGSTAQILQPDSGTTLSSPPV
Experimental: Human vascular endothelial growth factor receptor 2 (hereinafter to be referred to as VEGFR2) gene was cloned by PCR using cDNA Libraries Human Placenta (Clontech) as a template.
The PCR reaction was conducted using a KOD-plus kit (TOYOBO). […] Furthermore, using BAC-TO-BAC Baculovirus Expression System (Invitrogen), virus stock BAC-VEGFR2 of recombinant baculovirus was prepared.
SF-21 cells were sown at 1×10^6 cells/mL to Sf-900II SEM medium (1 L, Invitrogen) containing 10% fetal bovine serum (trace), 50 mg/L Gentamicin (Invitrogen) and 0.1% Pluronic F-68 (Invitrogen), and shaking culture was performed using a 2 L volume Erlenmeyer flask at 27° C., 100 rpm. After culturing for 24 hrs, recombinant baculovirus BAC-VEGFR2 (13.4 mL) was added to the mixture, and the mixture was further cultured for 3 days. The culture medium was centrifuged at 2,000 rpm for 5 min to give virus-infected cells. The infected cells were washed with a phosphate buffered saline (Invitrogen), centrifuged under the same conditions, and the cells were preserved at −80° C. The cryopreserved cells were thawed in ice, suspended in buffer A (50 mM Tris buffer (30 mL, pH 7.4) containing 20% glycerol, 0.15 M NaCl) supplemented with Complete Protease Inhibitor (Boehringer), and ruptured 3 times with a Polytron homogenizer (Kinematica) at 20,000 rpm for 30 sec. The ruptured medium was clarified by centrifugation at 40,000 rpm for 30 min and filtered with a 0.45 μm filter. The filtrate was passed through a column packed with Anti-FLAG M2 Affinity Gel (4 mL, Sigma) at a flow rate of about 0.5 mL/min. The column was washed with buffer A, and eluted with buffer A containing 100 μg/mL of FLAG peptide. The eluate was concentrated with Vivaspin 20 (Vivascience) having a molecular weight cut off of 30K. The buffer of this concentrate was exchanged using NAP™ 25 column (Amersham Bioscience) equilibrated with buffer A. The fractions containing intracellular domain protein of VEGFR2 were collected, glycerol was added to the final concentration of 50% and cryopreserved at −80° C.
A test compound dissolved in DMSO was diluted with a buffer (50 mM Tris-HCl (pH 7.5), 5 mM MgCl2, 5 mM MnCl2, 2 mM dithiothreitol, 0.01% Tween-20). To this compound solution (5 μL) was added a buffer (10 μL) containing 50 ng/mL of VEGFR2 intracellular domain protein and 250 ng/mL of biotin labeled polypeptide biotinyl-poly-Glu:Tyr (4:1, CIS bio International). […] The reaction solution was allowed to stand at 25° C. for 16 hrs, and the wells were counted using a plate reader Fusion™ (PerkinElmer). The kinase inhibitory rate (%) of the test compound was calculated by the following formula: Inhibitory rate(%)=(1−(count of test compound−blank)÷(control−blank))×100

Compound | IC50 [2] [nM] | IC50 [3] [nM] | inhibition at 1 µM [4] [%] | IC50 [1] [nM]
Cc1cccnc1C(=O)Nc1cccc(Oc2ccc3nc(NC(=O)C4CC4)cn3c2)c1 [Example 7-4, N-[3-({2-[(cyclopropylcarbonyl)amino]imidazo[1,2-a]pyridin-6-yl}oxy)phenyl]-3-methylpyridine-2-carboxamide] | ≤ 500 | ≤ 500 | ≥ 90 | ≤ 500
Cc1cc(C(=O)Nc2cc(Oc3ccc4nc(NC(=O)C5CC5)nn4c3)ccc2C)n(C)n1 [Example 17-2, N-[5-({2-[(cyclopropylcarbonyl)amino][1,2,4]triazolo[1,5-a]pyridin-6-yl}oxy)-2-methylphenyl]-1,3-dimethyl-1H-pyrazole-5-carboxamide] | ≤ 500 | ≤ 500 | – | ≤ 500
Cc1cccc(C(=O)Nc2cccc(Oc3ccc4nc(NC(=O)C5CC5)cn4c3)c2)n1 [Example 127-2, N-[3-({2-[(cyclopropylcarbonyl)amino]imidazo[1,2-a]pyridin-6-yl}oxy)phenyl]-6-methylpyridine-2-carboxamide] | ≤ 500 | ≤ 500 | ≥ 90 | ≤ 500
CCNC(=O)Nc1cn2cc(Oc3ccc(F)c(NC(=O)c4cc(C)nn4C)c3)ccc2n1 [Example 10, N-{5-[(2-{[(ethylamino)carbonyl]amino}imidazo[1,2-a]pyridin-6-yl)oxy]-2-fluorophenyl}-1,3-dimethyl-1H-pyrazole-5-carboxamide] | ≤ 500 | ≤ 500 | ≥ 90 | ≤ 500
Cc1nc(C(=O)Nc2cccc(Oc3ccc4nc(NC(=O)C5CC5)nn4c3)c2)c(C(F)(F)F)o1 [Example 22, N-[3-({2-[(cyclopropylcarbonyl)amino][1,2,4]triazolo[1,5-a]pyridin-6-yl}oxy)phenyl]-2-methyl-5-(trifluoromethyl)-1,3-oxazole-4-carboxamide] | ≤ 500 | ≤ 500 | ≥ 90 | ≤ 500
CCn1nc(C)cc1C(=O)Nc1cc(Oc2ccc3nc(NC(=O)C4CC4)nn3c2)ccc1F [Example 72, N-[5-({2-[(cyclopropylcarbonyl)amino][1,2,4]triazolo[1,5-a]pyridin-6-yl}oxy)-2-fluorophenyl]-1-ethyl-3-methyl-1H-pyrazole-5-carboxamide] | ≤ 500 | ≤ 500 | ≥ 90 | ≤ 500

Further lines, with some results ahead:

IC50 [2] [nM] | IC50 [3] [nM] | inhibition at 1 µM [4] [%] | Compound | IC50 [1] [nM]
≤ 500 | – | ≥ 90 | Cc1cc(C(=O)Nc2cccc(Oc3ccc4nc(NC(=O)C5CC5)sc4c3)c2)n(C)n1 [Example 97-2, N-[3-({2-[(cyclopropylcarbonyl)amino]-1,3-benzothiazol-6-yl}oxy)phenyl]-1,3-dimethyl-1H-pyrazole-5-carboxamide] | ≤ 500
≤ 500 | ≤ 500 | ≥ 90 | Cc1cc(C(=O)Nc2cccc(Oc3ccn4nc(NC(=O)C5CC5)nc4c3)c2)n(C)n1 [Example 96-4, N-[3-({2-[(cyclopropylcarbonyl)amino][1,2,4]triazolo[1,5-a]pyridine-7-yl}oxy)phenyl]-1,3-dimethyl-1H-pyrazole-5-carboxamide] | ≤ 500
≤ 500 | – | ≥ 90 | Cc1cc(C(=O)Nc2cccc(Oc3ccc4nc(NC(=O)C5CC5)sc4n3)c2)n(C)n1 [Example 99, N-[3-({2-[(cyclopropylcarbonyl)amino][1,3]thiazolo[5,4-b]pyridin-5-yl}oxy)phenyl]-1,3-dimethyl-1H-pyrazole-5-carboxamide] | ≤ 500
– | – | ≥ 90 | Cc1cc(C(=O)Nc2cc(Oc3ccc4nc(NC(=O)C5CC5)nn4c3)ccc2F)n(C)n1 [Example 23-2, N-[5-({2-[(cyclopropylcarbonyl)amino][1,2,4]triazolo[1,5-a]pyridin-6-yl}oxy)-2-fluorophenyl]-1,3-dimethyl-1H-pyrazole-5-carboxamide] | ≤ 500
